Paper PMC12040169 (PLOS Biology, 2025)

Assay: in vitro
Details: human, hela cells, % viability

Structure (SMILES)	viability at 28.5 h, 10 µM [%]
COc1cc(CNc2nc(-c3cccc4ccccc34)cn3ccnc23)cc(OC)c1OC [CBK037397]	112
CN(C)CCN(C)c1nc(-c2ccccc2F)cn2ccnc12 [CBK037406]	99.8
CCCC/C=C/c1nccnc1N(C)Cc1ccccc1 [CBK037412]	99.8
COc1cc(Nc2nc(-c3ccco3)cn3ccnc23)cc(OC)c1OC [CBK037413]	95.2
COc1cc(CNc2nc(-c3c(C)cccc3C)cn3ccnc23)cc(OC)c1OC [CBK037415]	91.1
O=[N+]([O-])c1cccc(CNc2nccnc2-c2ccccc2F)c1 [CBK037416]	102
COc1cc(-c2nccnc2N(C)Cc2ccccc2)cc(OC)c1OC [CBK037424]	96.5
O=C(Nc1cccc(OCc2ccccc2)c1)c1cnc(-c2ccc(Cl)cc2)c(-c2ccco2)c1 [CBK037429]	93.9
COc1ccc(-c2cc(C(=O)NCc3cc(Cl)cc(Cl)c3)cnc2-c2ccc(Cl)cc2)cn1 [CBK037431]	88.8
Cc1cccc(-c2ncc(C(=O)NCCN3CCOCC3)cc2-c2ccc(O)cc2)c1 [CBK037435]	105
COc1cccc(OC)c1-c1cn2ccnc2c(NCc2ccccn2)n1 [CBK037439]	93.7
OCCN1CCN(c2nc(-c3ccc4c(c3)OCO4)cn3ccnc23)CC1 [CBK037443]	99.1
OCc1ccccc1-c1nccnc1NCCc1cccnc1 [CBK037444]	94
O=C(Nc1ccc2[nH]ccc2c1)c1cnc(-c2ccc(F)cc2)c(-c2ccncc2)c1 [CBK037451]	91.9
COc1ccc(-c2cc(C(=O)Nc3ccc(CCO)cc3)cnc2-c2cccc(C)c2)cn1 [CBK037461]	91.8
Nc1ccc(NC(=O)c2ccc(NC(=O)c3cnc(-c4ccccc4)c(-c4ccncc4)c3)cc2)cc1 [CBK037463]	101
O=C(NCC(F)(F)F)c1cnc(-c2ccc(Cl)cc2)c(-c2ccco2)c1 [CBK037468]	86.2
Fc1ccccc1-c1cn2ccnc2c(NCCc2cccnc2)n1 [CBK037473]	88.1
OCc1cccc(-c2nccnc2NCc2ccc(OC(F)(F)F)cc2)c1 [CBK037476]	108
CCNC(=O)c1cnc(-c2ccc(F)cc2)c(-c2ccncc2)c1 [CBK037477]	101
c1ccc(CNc2nc(-c3ccco3)cn3ccnc23)nc1 [CBK037482]	96.6
CC(=O)c1ccc(-c2nccnc2N2CCCC2CO)s1 (stereo not shown) [CBK037483]	113

Structure (SMILES)	viability at 28.5 h, 10 µM [%]
COc1cccc(NC(=O)c2cnc(-c3ccccc3)c(-c3cccnc3)c2)c1OC [CBK037487]	92.8
COc1ccc(NC(=O)c2cnc(-c3cccc(C)c3)c(-c3ccco3)c2)cc1 [CBK037491]	83.9
c1ccc(Nc2nc(-c3ccc4c(c3)OCO4)cn3ccnc23)cc1 [CBK037494]	92.2
CC(C)[C@@H](CO)Nc1nc(-c2cc(C(F)(F)F)cc(C(F)(F)F)c2)cn2ccnc12 [CBK037496]	84.9
CCCC/C=C/c1nccnc1NCc1ccncc1 [CBK037500]	108
Nc1cccc(-c2nccnc2NCCc2ccccn2)c1 [CBK037512]	102
CCCC/C=C/c1nccnc1N[C@@H](CO)C(C)C [CBK037514]	101
COCCNC(=O)c1cnc(-c2ccccc2)c(-c2cccnc2)c1 [CBK037515]	106
O=C(Nc1ccc(O)cc1)c1cnc(-c2ccc(Cl)cc2)c(-c2cccnc2)c1 [CBK037516]	94.7
CC(=O)N1CCN(C(=O)c2cnc(-c3ccc(Cl)cc3)c(-c3ccco3)c2)CC1 [CBK037518]	98.1
CC(C)[C@@H](CO)NC(=O)c1cnc(-c2cccc(C(F)(F)F)c2)c(-c2cccnc2)c1 [CBK037520]	112
c1ccc(CNc2nccn3ccnc23)nc1 [CBK037526]	104
Cc1cccc(CNc2nccnc2-c2cccc(Cl)c2)c1 [CBK037527]	109
O=C(Nc1ccc2c(c1)OCCO2)c1cnc(-c2ccc(Cl)cc2)c(-c2cccnc2)c1 [CBK037528]	110
O=C(NCC(c1ccccc1)N1CCOCC1)c1cnc(-c2ccc(F)cc2)c(-c2ccco2)c1 (stereo not shown) [CBK037531]	95.7
COc1cc(-c2cn3ccnc3c(NCC3CC3)n2)ccc1O [CBK037538]	106
Fc1ccccc1-c1nccnc1NCc1ccncc1 [CBK037540]	101
CC(C)[C@H](CO)Nc1nccnc1-c1cccc(O)c1 [CBK037542]	96.1
COc1cccc(CNc2nccnc2-c2ccsc2)c1OC [CBK037543]	107
O=C(NCCCN1CCCC1=O)c1cnc(-c2ccc(Cl)cc2)c(-c2ccncc2)c1 [CBK037545]	74.8
O=C(NCCS(=O)(=O)c1ccccc1)c1cnc(-c2ccc(Cl)cc2)c(-c2ccco2)c1 [CBK037546]	96.4
O=C(NCc1ccc2c(c1)OCO2)c1cnc(-c2ccc(Cl)cc2)c(-c2ccco2)c1 [CBK037547]	98.3

Structure (SMILES)	viability at 28.5 h, 10 µM [%]
O=C(NCc1nc2ccccc2[nH]1)c1cnc(-c2ccc(Cl)cc2)c(-c2ccco2)c1 [CBK037555]	106
CC(NC(=O)c1cnc(-c2cccc(C(F)(F)F)c2)c(-c2ccncc2)c1)c1ccc(F)cc1 (stereo not shown) [CBK037556]	99.7
CC(=O)c1ccc(-c2nc(NC(=O)c3cccs3)cnc2-c2ccc(F)cc2)s1 [CBK037558]	81.8
NC1CCC(NC(=O)c2cnc(-c3ccc(Cl)cc3)c(-c3ccco3)c2)CC1 (stereo not shown) [CBK037563]	105
Cc1cccc(-c2ncc(NC(=O)Cc3ccc(-c4ccccc4)cc3)nc2-c2ccc(N(C)C)cc2)c1 [CBK037567]	98.1
COc1cc(NC(=O)c2cnc(-c3ccc(Cl)cc3)c(-c3ccco3)c2)cc(C(F)(F)F)c1 [CBK037570]	91.4
COc1ccc(-c2cc(C(=O)NCc3ccc4c(c3)OCO4)cnc2-c2ccccc2)cn1 [CBK037571]	97.9
Nc1cccc(-c2nc(NC(=O)c3ccncc3)cnc2-c2ccc(F)c(Cl)c2)c1 [CBK037573]	114
COc1ccc(-c2cc(C(=O)N3CCN(C(C)=O)CC3)cnc2-c2ccc(Cl)cc2)cc1 [CBK037577]	102
COc1ccc(-c2cc(C(=O)NCc3nc4ccccc4[nH]3)cnc2-c2ccccc2)cn1 [CBK037579]	99.6
Nc1ccc(CCNC(=O)c2cnc(-c3cccc(C(F)(F)F)c3)c(-c3ccncc3)c2)cc1 [CBK037580]	90.8
Cc1cccc(-c2ncc(NC(=O)Cc3cccc(Oc4ccccc4)c3)nc2-c2ccc(N)cc2)c1 [CBK037583]	97.2
COc1ccc(Nc2ccc(-c3cccc(N(C)C)c3)cn2)cn1 [CBK037588]	95.5
O=C(Nc1ccc2ncccc2c1)c1cnc(-c2cccc(C(F)(F)F)c2)c(-c2cccnc2)c1 [CBK037591]	89.9
COc1cc(CNc2cccc(-c3ccsc3)n2)cc(OC)c1 [CBK037592]	97.8
Cc1ccc(S(=O)(=O)NCC(=O)Nc2cnc(-c3cccc(C)c3)c(-c3ccc(N)cc3)n2)cc1 [CBK037600]	83.5
O=C(NC1CCN(Cc2ccccc2)CC1)c1cnc(-c2ccc(Cl)cc2)c(-c2cccnc2)c1 [CBK037602]	92.2
COc1ccc(-c2cc(C(=O)N[C@H]3CCN(Cc4ccccc4)C3)cnc2-c2ccccc2)cn1 [CBK037605]	93.9
COc1ccc(-c2ccc(Nc3cccc(N(C)C)c3)nc2)cc1OC [CBK037606]	90
COc1cc(Nc2cccc(-c3ccc4ccccc4c3)n2)cc(OC)c1OC [CBK037612]	97.9
CO[C@@H](C(=O)Nc1cnc(-c2cccc(C)c2)c(-c2ccco2)n1)c1ccccc1 [CBK037613]	105
C(=C\c1cccc(Nc2ccc(Oc3ccccc3)cc2)n1)/c1ccccc1 [CBK037614]	94.1

Structure (SMILES)	viability at 28.5 h, 10 µM [%]
COC(=O)c1ccc(Nc2cccc(-c3cccc(N)c3)n2)cc1OC [CBK037619]	102
COc1ccc(-c2cc(C(=O)NCCS(C)(=O)=O)cnc2-c2ccc(Cl)cc2)cc1 [CBK037620]	111
Clc1ccc(-c2ccc(N3CCN(CCN4CCCC4)CC3)nc2)cc1 [CBK037623]	97.8
COc1ccccc1-c1nccnc1N[C@H]1CCN(Cc2ccccc2)C1 [CBK037626]	94.4
CCCCN(C)c1nccnc1-c1cccnc1 [CBK037631]	99.2
COc1ccc(-c2cccc(Nc3cc(OC)c(OC)c(OC)c3)n2)cc1OC [CBK037634]	55.7
c1ccc(Oc2ccc(Nc3cccc(-c4ccc5ccccc5c4)n3)cc2)cc1 [CBK037636]	112
COc1ccccc1-c1nccnc1NCC(C)O (stereo not shown) [CBK037637]	90.4
O=C(c1ccco1)N1CCN(c2ccc(-c3cccc4cccnc34)cn2)CC1 [CBK037640]	72.4
Fc1ccc(-c2ccc(Nc3cccnc3)nc2)cc1Cl [CBK037642]	93
c1ccc(Oc2ccc(Nc3ccc(-c4cccc5cccnc45)cn3)cc2)cc1 [CBK037643]	105
CCCC/C=C/c1cccc(Nc2cccnc2)n1 [CBK037645]	103
COc1cc(-c2nccnc2NCC2CCCCC2)cc(OC)c1OC [CBK037647]	93.9
CCCCN(C)c1nccnc1-c1ccncc1 [CBK037655]	93.4
CS(=O)(=O)c1ccc(-c2nccnc2N2CCCCC2CO)cc1 (stereo not shown) [CBK037657]	102
c1ccc(N2CCN(c3cccc(-c4ccco4)n3)CC2)nc1 [CBK037662]	107
O=c1[nH]ccn1CCNc1ccc(-c2ccccc2Oc2ccccc2)cn1 [CBK037665]	103
CCCCN(C)c1nccnc1-c1ccc(CO)cc1 [CBK037666]	92.3
CS(=O)(=O)c1ccc(-c2nccnc2N[C@@H]2CCN(Cc3ccccc3)C2)cc1 [CBK037667]	102
